Positions of bridges follow the written chain, without caps; N, C: chain ends. No end group written: not given here.
Experiments:
[1] = system: Dextran Sodium Sulphate (DSS) Induced Colitis Model in Mice; assay: Acute 10-day DSS induced colitis model, hBD-2-albumin fusion N-terminal (Example 8); assay type: in vivo; details: fusion iv or sc daily; DEX 1 mg/kg sc OD
Procedure: “hBD-2-albumin N-terminal” was administered intravenously via the tail vein or subcutaneously with the use of a sterile 25 G needle in a dosing volume of 10 ml/kg body weight. The animals received 1 dose daily for 10 executive days.

[2] = system: C57Bl/6J DIO male mice; assay: GLP-1 analog (liraglutide) treatment of high fat diet fed DIO mice (Example 5); assay type: in vivo; details: 0.2 mg/kg BID subcutaneously, 4 weeks
Text: FIG. 31: Schematic outline of the experimental set up for investigating the effects of a GLP-1 analog (Liraglutid) on mouse gut inflammation and microbiota. At week −40, the C57/BI/6J DIO mice arrived. The mice were fed a high fat diet 60% fat, SSNIFF (Diet #D12492) or purina chow for 38 weeks to achieve an average body weight of 55 gram. From week −2 the mice were single housed. Faecal samples were collected on day −1 and 27 for 16S RNA analysis. Samples from ilium were collected 2 cm from caecum at day 28.
4 weeks old C57Bl/6J DIO male mice were fed a high fat diet (HFD 60% fat, SSNIFF (Diet #D12492)) or purina chow for […]. The HFD fed group had reached an average weight of approximately 55 grams by start of intervention. The mice were group housed 10 per cage until week −2. From week −2 the mice were single housed throughout the study. Feed intake was registered daily just before lights were turned off at 3 pm. Individual mice were subjected to experimental procedures in altered order both group and cage wise. Mice were kept at room temperature under a 12-hour light/dark cycle at SPF standard conditions.
Mice were fed either a high fat diet (HFD) or a low fat (LF) control diet. The HFD contained 2 subgroups; 1 GLP-1 analog and 1 standard HFD without supplementation of GLP-1 analog. The GLP-1 analog liraglutide was dissolved in PBS and 0.1% BSA was added. The GLP-1 analog was administered at 0.2 mg/kg BID subcutaneously.

[3] = system: Dextran Sodium Sulphate (DSS) Induced Colitis Model in Mice; assay: Acute 10-day DSS induced colitis model, hBD-2-albumin fusion C-terminal (Example 9); assay type: in vivo; details: Pred 1 mg/kg orally daily
Procedure: “hBD-2-albumin C-terminal” was administered intravenously via the tail vein or subcutaneously with the use of a sterile 25 G needle in a dosing volume of 10 ml/kg body weight. The animals received 1 dose daily for 10 […] days. The active control Prednisolone (Pred) was given orally by gavage at a dose of 1 mg/kg in a dosing volume of 10 ml/kg body weight OD.

[4] = Pharmacokinetics of hBD-2 after single oral gavage (Example 6); assay type: in vivo, NMRI mice; details: oral dosing of 4 mg/kg in mice
Procedure: FIG. 35. Pharmacokinetic data following oral administration of 4 mg/kg hBD-2 to female NMRI mice. […] The results are given as group mean+/−SEM.
21 female NMRI mice were dosed by oral gavage 5 ml/kg using a gavage tube and a 1 ml syringe according to the individual body weight obtained on the day of dosing. Urine was strived sampled at random time points by gently massaging the inguinal area of the abdomen. The first blood sample was taken using a submandibular sampling method. The second blood sample was collected from Isoflurane anaesthetised mice. Intestinal samples were taken after euthanasia. The abdomen of each mouse was opened and three sections of the intestines were sampled.

[5] = Pharmacokinetics of hBD-2 and hBD-2-albumin fusions after subcutaneous or intravenous administration (Example 7); assay type: in vivo, NMRI female mice; details: hBD-2 1 mg/kg
Procedure: FIG. 36. Pharmacokinetic data for hBD-2 following subcutaneous (SC) and intravenous (IV) administration of 1 mg/kg respectively. […] The different curves represent different experiments and detection methods (HPLC and ELISA).
FIG. 37. Pharmacokinetic data for “hBD-2-albumin fusion N-terminal” following subcutaneous and intravenous administration of 16.5 mg/kg respectively. […] The results are the mean of 4 mice/sampling time+/−SD.
FIG. 38. Pharmacokinetic data for “hBD-2-albumin fusion C-terminal” following subcutaneous and intravenous administration of 16.5 mg/kg respectively. […] The results are the mean of 4 mice/sampling time+/−SD.
The animals were dosed 10 ml/kg of stock concentration of 1.65 mg/ml according to the individual body weight (300 μL for a 30 gram mouse). First blood sample was taken using a submandibular sampling method and the second following Isoflurane anaesthesia and euthanasia.

[6] = degradation by dipeptidyl peptidase-4; cited from earlier work
[7] = system: isolated hepatocytes; details: Liu et al. (2008); cited from earlier work
[8] = compared to untreated HFD reference group

C[C@@H]1C[C@H]2[C@@H]3CCC4=CC(=O)C=C[C@]4(C)[C@@]3(F)[C@@H](O)C[C@]2(C)[C@@]1(O)C(=O)CO [DEX, Dexamethasone]
body weight [1]: very significant decrease in body weight from day 5 onwards | histological damage of colonic tissue [1]: failed to significantly reduce histological injury

CCCCCCCCCCCCCCCC(=O)N[C@@H](CCC(=O)NCCCC[C@H](NC(=O)[C@H](C)NC(=O)[C@H](C)NC(=O)[C@H](CCC(N)=O)NC(=O)CNC(=O)[C@H](CCC(=O)O)NC(=O)[C@H](CC(C)C)NC(=O)[C@H](Cc1ccc(O)cc1)NC(=O)[C@H](CO)NC(=O)[C@H](CO)NC(=O)[C@@H](NC(=O)[C@H](CC(=O)O)NC(=O)[C@H](CO)NC(=O)[C@@H](NC(=O)[C@H](Cc1ccccc1)NC(=O)[C@@H](NC(=O)CNC(=O)[C@H](CCC(=O)O)NC(=O)[C@H](C)NC(=O)[C@@H](N)Cc1cnc[nH]1)[C@@H](C)O)[C@@H](C)O)C(C)C)C(=O)N[C@@H](CCC(=O)O)C(=O)N[C@@H](Cc1ccccc1)C(=O)N[C@H](C(=O)N[C@@H](C)C(=O)N[C@@H](Cc1c[nH]c2ccccc12)C(=O)N[C@@H](CC(C)C)C(=O)N[C@H](C(=O)N[C@@H](CCCNC(=N)N)C(=O)NCC(=O)N[C@@H](CCCNC(=N)N)C(=O)NCC(=O)O)C(C)C)[C@@H](C)CC)C(=O)O [GLP-1 analog, liraglutide]
liver weight at termination vs chow fed mice [2]: not statistically significantly different | body weight lost [2, 8]: 25-30% | body weight lost (average) [2, 8]: 15 gram | plasma cholesterol level vs HFD reference group ([2]; p<0.01): statistically significantly lower

C[C@]12C=CC(=O)C=C1CC[C@@H]1[C@@H]2[C@@H](O)C[C@@]2(C)[C@H]1CC[C@]2(O)C(=O)CO [Pred, Prednisolone]
histological injury, proximal part of the colon [3]: failed to significantly reduce histological injury in the proximal part of the colon | histological injury, distal colon ([3]; p<0.01): did reduce the injury in the distal colon | DAI ([3]; p<0.05): significant inhibition of the DAI on day 9

GIGDPVTCLKSGAICHPVFCPRRYKQIGTCGLPGTKCCKKP (disulfide 8-37, 15-30, 20-38) [hBD-2, human beta defensin 2]
systemic availability after oral dosing [4]: not systemically available | renal clearance [5]: 10 mL/min

Glucagon-like peptide-1 [GLP-1]
half-life in the circulation [6]: less than 2 minutes

human neutrophil peptide 1 [HNP-1]
glycogenolysis and gluconeogenesis [7]: able to inhibit glycogenolysis and gluconeogenesis in isolated hepatocytes

human neutrophil peptide 2 (CYCRIPACIAGERRYGTCIYQGRLWAFCC; listed as Homo sapiens) [HNP-2, alpha defensin produced by leucocytes]
glycogenolysis and gluconeogenesis [7]: able to inhibit glycogenolysis and gluconeogenesis in isolated hepatocytes
